# Assays:
# [1] = Panel test of body-odor-like smell, oleic acid heated (Experiment 1); set-up: key: +++: the same or higher level of odor; ++: slightly lower level of odor; +: clearly lower level of odor than that of the control system; details: oleic acid heated at 105° C. for one hour; six panels, compared with control system
# Protocol: (§1) One hundred milligrams of oleic acid as a fatty acid, 500 mg of cellulose powder, and 1.25 ml of 0.12 M phosphate buffer (pH 6.0) were placed in a 20-ml glass vial. To the glass vial were added 100 mg of either of crystalline trehalose hydrate, crystalline maltitol anhydride, crystalline sorbitol anhydride, crystalline sucrose anhydride, crystalline maltose anhydride, and crystalline neotrehalose hydride as test saccharides (throughout Experiments 1 to 6, these saccharides are designated as “trehalose”, “maltitol”, sorbitol”, “sucrose”, “maltose”, and “neotrehalose”, respectively), followed by sealing the glass vial with a butyl rubber. As a control system, there provided a glass vial, with no a test saccharide, which differed from the test glass vial on this point. These glass vials were heated at 105° C. for one hour, cooled to ambient temperature, and kept in an aluminum heat-block (abbreviated as “heat block, hereinafter”), which had been preheated to 80° C. After 5-minutes standing, two milliliters of a head space gas (abbreviated as “HSG”, hereinafter) were collected from each glass vial with a syringe.
# (§2) Upon the HSG samples, the level of a body-odor-like smell was examined on a panel test consisting of six professional panels; the panels directly smelled the samples from each glass vial and judged the level of the smells for each samples with test saccharides based on the following four ranks, i.e., the same or higher level of odor (+++), slightly lower level of odor (++), clearly lower level of odor (+), and odorless (−) as compared with the control system. Summing up the data from the panels, the samples tested were totally evaluated.
# [2] = Formation of 2-nonenal from 9-hexadecanoic acid by heating, GC of HSG (Experiment 3); details: 9-hexadecanoic acid + 100 mg test saccharide, heated at 105° C. for one hour; control 25.7
# Protocol: as §1
# (§3) The collected HSG was analyzed for content of volatile aldehydes on gas chromatography (abbreviated as “GC” hereinafter) using “GAS CHROMATOGRAPH GC-14A”, as a GC apparatus; “CAPILLARY COLUMN SUPELCO-WAX”, having 0.25 mm in inner diameter, 60 m in length, and 0.25 μm in thickness, commercialized by Supelco Inc., Tokyo, Japan, as a column for analysis; helium gas at a flow rate of one ml/min as a carrier gas, under temperature conditions of 250° C. for injecting a sample and of a column thermostatic bath temperature being kept at 80° C. for five minutes and then increased up to 240° C. at a rate of 5° C./min. As standard specimens, propanal, butanal, and hexanal as volatile aldehydes were used. Based on the peak area obtained from gas chromatography for the standard specimens and HSG samples, the content of respective volatile aldehydes in HSG was calculated.
# (§4) The content of 2-nonenal in HSG was measured by GC similarly as in Experiment 1 except that 9-hexadecanoic acid or palmitoleic acid was used as a fatty acid and 2-nonenal, a volatile aldehyde, was used as a standard substance. The level of body-odor-like smell, particularly with respect to KAREI-SHU, in each sample was evaluated by panel test in accordance with the method in Experiment 1.
# [3] = Panel test of body-odor-like smell (KAREI-SHU), 9-hexadecanoic acid heated (Experiment 3); set-up: key: +++: the same or higher level of odor; ++: slightly lower level of odor; +: clearly lower level of odor than that of the control system; details: compared with control system
# From the text: as §2, §4
# [4] = Formation of volatile aldehydes from oleic acid by heating, GC analysis of head space gas (Experiment 1); details: oleic acid 100 mg + 100 mg test saccharide, heated at 105° C. for one hour; for Content in HSG, Hexanal: control 0.08; for Content in HSG, Butanal: control 1.04; for Content in HSG, Propanal: control 9.41
# Protocol: as §1, §3
# [5] = Formation of 2-nonenal from linoleic acid by heating, GC of HSG (Experiment 2); details: linoleic acid + 100 mg test saccharide, heated at 105° C. for one hour; control 5.75
# Protocol: as §1, §3
# as §4, with “except that linoleic acid was” for “except that 9-hexadecanoic acid or palmitoleic acid was”, “level of a body-odor-like smell,” for “level of body-odor-like smell,”
# [6] = Panel test of body-odor-like smell (KAREI-SHU), linoleic acid heated (Experiment 2); set-up: key: +++: the same or higher level of odor; ++: slightly lower level of odor; +: clearly lower level of odor than that of the control system; details: compared with control system
# From the text: as §2
# as §4, with “except that linoleic acid was” for “except that 9-hexadecanoic acid or palmitoleic acid was”, “level of a body-odor-like smell,” for “level of body-odor-like smell,”
Compound,Evaluation of panel test [1],Content of 2-nonenal in HSG [2] [µg/mL],Evaluation of panel test [3],"Content in HSG, Hexanal [4] [µg/mL]","Content in HSG, Butanal [4] [µg/mL]","Content in HSG, Propanal [4] [µg/mL]",Content of 2-nonenal in HSG [5] [µg/mL],Evaluation of panel test [6]
"OC[C@H]1O[C@H](O[C@H]2[C@H](O)[C@@H](O)C(O)O[C@@H]2CO)[C@H](O)[C@@H](O)[C@@H]1O (mixture of isomers) [Maltose, maltose]",+++,24.2,+++,0.07,1.38,9.09,4.60,+++
"OC[C@H]1O[C@@H](O[C@H]2O[C@H](CO)[C@@H](O)[C@H](O)[C@H]2O)[C@H](O)[C@@H](O)[C@@H]1O [Neotrehalose, neotrehalose]",+++,25.7,+++,0.08,1.25,8.89,5.64,+++
"OC[C@@H](O)[C@@H](O)[C@H](O)[C@@H](O)CO [Sorbitol, sorbitol]",+++,23.6,+++,0.06,1.06,8.31,5.12,+++
